Experimental data from ChEMBL document CHEMBL1124020, “Synthesis and antiherpetic activity of (+/-)-9-[[(Z)-2-(hydroxymethyl)cyclopropyl]methyl]guanine and related compounds” (1988).
In brackets after ≈: the same amount, converted by molar mass. Activity calls are given as the source filed them. No cut-off for these calls is given here.

Legend:
[1] = (§1) Antiviral activity against HSV-1 cell line (concentration required to prevent viral cytopathic effect in half of primary rabbit kidney cell cultures); conditions: Oryctolagus cuniculus, read-out: ED50
[2] = target: T1, DNA polymerase catalytic subunit (Herpes simplex virus (type 1 / strain 17)) (UniProt P04293); test: Percentage of monophosphates (MP) in the second step of staggered assay mixture from step 1 was incubated with GMP kinase and crude extract of HSV-1 infected HeLa cells over night; assay type: functional, cell-based
T1 sequence (whole entry): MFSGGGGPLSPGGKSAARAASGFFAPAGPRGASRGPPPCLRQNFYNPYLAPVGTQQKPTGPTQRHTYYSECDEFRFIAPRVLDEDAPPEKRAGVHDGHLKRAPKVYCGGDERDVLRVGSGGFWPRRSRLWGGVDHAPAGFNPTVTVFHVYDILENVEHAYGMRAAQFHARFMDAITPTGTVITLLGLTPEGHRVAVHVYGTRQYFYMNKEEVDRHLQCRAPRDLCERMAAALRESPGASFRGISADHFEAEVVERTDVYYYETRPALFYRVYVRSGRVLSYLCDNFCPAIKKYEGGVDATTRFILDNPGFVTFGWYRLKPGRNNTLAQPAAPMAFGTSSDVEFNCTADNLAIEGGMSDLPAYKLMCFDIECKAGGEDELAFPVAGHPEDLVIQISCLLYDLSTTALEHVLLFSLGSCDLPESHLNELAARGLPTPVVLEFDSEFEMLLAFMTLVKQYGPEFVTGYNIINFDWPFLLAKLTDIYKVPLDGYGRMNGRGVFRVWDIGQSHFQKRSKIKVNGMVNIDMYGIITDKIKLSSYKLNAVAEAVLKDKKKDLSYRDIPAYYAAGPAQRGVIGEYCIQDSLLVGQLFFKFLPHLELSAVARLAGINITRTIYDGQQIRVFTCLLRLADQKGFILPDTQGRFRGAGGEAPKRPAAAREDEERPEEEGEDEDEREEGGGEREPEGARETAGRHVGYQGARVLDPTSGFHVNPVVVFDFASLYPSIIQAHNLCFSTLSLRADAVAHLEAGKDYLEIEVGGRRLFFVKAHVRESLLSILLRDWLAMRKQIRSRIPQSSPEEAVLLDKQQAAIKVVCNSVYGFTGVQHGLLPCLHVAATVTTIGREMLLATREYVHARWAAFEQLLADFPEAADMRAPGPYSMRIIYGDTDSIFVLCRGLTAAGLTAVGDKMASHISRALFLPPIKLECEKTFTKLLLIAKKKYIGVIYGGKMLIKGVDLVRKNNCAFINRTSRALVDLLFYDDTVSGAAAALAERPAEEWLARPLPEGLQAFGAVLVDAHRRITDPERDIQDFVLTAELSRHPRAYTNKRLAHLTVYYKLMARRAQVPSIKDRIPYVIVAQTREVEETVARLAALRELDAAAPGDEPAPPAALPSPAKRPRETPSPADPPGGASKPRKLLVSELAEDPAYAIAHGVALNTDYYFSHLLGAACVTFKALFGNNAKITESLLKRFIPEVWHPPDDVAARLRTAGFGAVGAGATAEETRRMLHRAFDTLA

[3] = target: T1, DNA polymerase catalytic subunit (Herpes simplex virus (type 1 / strain 17)); test: (§2) Inhibition of DNA polymerase; parameters: concentration or dose not given beside the values; conditions: concentration not given here
[4] = as §2; parameters: concentration or dose not given beside the values; conditions: concentration not given here
[5] = target: T1, DNA polymerase catalytic subunit (Herpes simplex virus (type 1 / strain 17)); test: (§3) Percentage of triphosphates (TP) in the second step of staggered assay mixture from step 1 was incubated with GMP kinase and crude extract of HSV-1 infected HeLa cells over night; assay type: functional, cell-based; conditions: Homo sapiens
[6] = (§4) Antiviral activity against HSV-2 cell line (concentration required to prevent viral cytopathic effect in half of primary rabbit kidney cell cultures); conditions: Oryctolagus cuniculus, HSV-2, read-out: ED50
[7] = target: T1, DNA polymerase catalytic subunit (Herpes simplex virus (type 1 / strain 17)); test: Percentage of diphosphates (DP) in the second step of staggered assay mixture from step 1 was incubated with GMP kinase and crude extract of HSV-1 infected HeLa cells over night; assay type: functional, cell-based
Oryctolagus cuniculus [8] = species: Oryctolagus cuniculus; test: Antiviral activity against HSV-1 cell line (concentration required to prevent viral cytopathic effect in half of primary rabbit kidney cell cultures); Not Active at 100 ug/mL; assay type: functional, organism-based
Oryctolagus cuniculus [9] = species: Oryctolagus cuniculus; test: Antiviral activity against HSV-2 cell line (concentration required to prevent viral cytopathic effect in half of primary rabbit kidney cell cultures); Not Active at 100 ug/mL; assay type: functional, organism-based
Oryctolagus cuniculus [10] = species: Oryctolagus cuniculus; test: as §1; assay type: functional; conditions: read-out: ED50 (the source's name)
[11] = as §2; assay type: functional; conditions: concentration not given here
Oryctolagus cuniculus [12] = species: Oryctolagus cuniculus; test: as §4; assay type: functional; conditions: read-out: ED50 (the source's name)
[13] = tested on: Thymidine kinase (Human herpesvirus 1); test: Percentage of monophosphates (MP) formed in the first step of staggered assay compound was incubated with HSV-1 thymidine kinase for 4 hr
HeLa = test: as §3; assay type: functional, Homo sapiens

Row | Compound | EC50 [1] [µg/mL] | MP [2] [%] | inhibition [3] [%] | inhibition [4] [%] | TP [5] [%] | EC50 [6] [µg/mL] | DP [7] [%] | ED50 (Oryctolagus cuniculus [8]) | ED50 (Oryctolagus cuniculus [9]) | EC50 (Oryctolagus cuniculus [10]) [µg/mL] | inhibition [11] [%] | EC50 (Oryctolagus cuniculus [12]) [µg/mL] | NA (Oryctolagus cuniculus [8]) | MP [13] [%] | NA (Oryctolagus cuniculus [9]) | TP (HeLa) [%]
1 | Nc1nc2c(ncn2COCCO)c(=O)[nH]1 [ACYCLOVIR] | 3 (≈ 13.3 µM) | 3 | 79 | 40 | 60 | 3 (≈ 13.3 µM) | 9 |  |  |  |  |  |  |  |  | 
2 | Cc1cn(C[C@H]2C[C@H]2CO)c(=O)[nH]c1=O |  | 23 | 22 | 0 | 0 |  | 0 | inactive | inactive |  |  |  |  |  |  | 
3 | Nc1ncnc2c1ncn2CC1CC1(CO)CO (stereo unspecified) |  | 0 | 0 |  | 0 |  | 0 |  |  | 50 (≈ 201 µM) | 12 | 50 (≈ 201 µM) |  |  |  | 
4 | Nc1nc(O)c(N=O)c(NC[C@H]2C[C@@H]2CO)n1 |  | 9 | 9 | 5 | 0 |  | 0 | inactive | inactive |  |  |  |  |  |  | 
5 | Nc1nc(O)c2ncn(CC#CCO)c2n1 |  | 0 | 0 | 5 | 0 |  | 0 | inactive | inactive |  |  |  |  |  |  | 
6 | Nc1nc(O)c2ncn(C/C=C\CO)c2n1 |  | 12 | 12 | 8 | 64 |  | 16 |  |  | 12 (≈ 54.2 µM) |  | 50 (≈ 226 µM) |  |  |  | 
7 | Nc1ncnc2c1ncn2C/C=C\CO |  | 0 | 0 | 3 | 0 |  | 0 |  |  |  |  |  | inactive | 0 | inactive | 
8 | Nc1nc(O)c2ncn(C[C@H]3C[C@@H]3CO)c2n1 |  | 9 | 26 | 30 | 2 |  | 48 | inactive | inactive |  |  |  |  |  |  | 
9 | Nc1nc(O)c2ncn(CCC(CO)CO)c2n1 [PENCICLOVIR] |  | 3 | 0 | 8 | 75 |  | 13 |  |  | 6 (≈ 23.7 µM) |  | 12 (≈ 47.4 µM) |  |  |  | 
10 | Nc1nc(O)c2nnn(C[C@H]3C[C@H]3CO)c2n1 |  | 2 | 0 | 1 | 55 |  | 41 | inactive | inactive |  |  |  |  |  |  | 
11 | Nc1nc(O)c2ncn(C/C=C/CO)c2n1 |  | 9 | 0 | 0 | 0 |  | 0 | inactive | inactive |  |  |  |  |  |  | 
12 | Nc1ncnc2c1ncn2C[C@H]1C[C@H]1CO |  | 0 | 5 | 0 | 0 |  | 0 | inactive | inactive |  |  |  |  |  |  | 
13 | Nc1nc(O)c2ccn(C[C@H]3C[C@H]3CO)c2n1 |  | 9 | 14 | 0 | 0 |  | 0 | inactive | inactive |  |  |  |  |  |  | 
14 | Nc1nc2c(ncn2CCCCO)c(=O)[nH]1 |  | 0 | 20 | 20 | 17 |  | 10 |  |  | 3 (≈ 13.4 µM) |  | 12 (≈ 53.8 µM) |  |  |  | 
15 | Nc1nc2c(ncn2COC(CO)CO)c(=O)[nH]1 [GANCICLOVIR] |  | 3 | 60 | 22 | 84 |  | 10 |  |  | 3 (≈ 11.8 µM) |  | 3 (≈ 11.8 µM) |  |  |  | 
16 | Nc1nc(O)c2ncn(CC=C(CO)CO)c2n1 |  | 0 | 0 | 0 |  |  | 9 | inactive | inactive |  |  |  |  |  |  | 25
17 | Nc1nc(O)c2ncn(C[C@H]3C[C@H]3CO)c2n1 |  | 0 | 3 | 14 | 76 |  | 0 |  |  | 6 (≈ 25.5 µM) |  | 12 (≈ 51 µM) |  |  |  | 
18 | Nc1ncnc2c1ncn2C[C@H]1C[C@@H]1CO |  | 0 | 0 | 0 | 0 |  | 0 |  |  | 50 (≈ 228 µM) |  | 50 (≈ 228 µM) |  |  |  | 
19 | Nc1nc(O)c(N=O)c(NC[C@H]2C[C@H]2CO)n1 |  | 0 | 8 | 0 | 21 |  | 0 | inactive | inactive |  |  |  |  |  |  | 
20 | Nc1nc(O)c2ncn(C[C@H]3CC3(CO)CO)c2n1 |  | 0 | 0 | 0 | 0 |  | 0 |  | inactive | 50 (≈ 188 µM) |  |  |  |  |  | 
